The values below come from patent publication US11142525B2 (Pfizer Inc., priority 2018, dated 2021).

Where a name gives a salt, the structure may show the parent alone. Read-outs that look alike come from different tables or passages of the source.

For assay [1], the system named is phospho-SLP-76 (Ser376) in Jurkat cells. In words: Phospho-SLP-76 (Ser376) Homogeneous Time Resolved Fluorescence (HTRF) assay in Jurkat cells. It counts as cell-based. As to conditions: Homo sapiens, read-out: SLP76 Assay_IC50. The procedure, abridged: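 Jurkat cells pre-treated 30 min with compounds (10 μM to 0.1 nM, 11-point, 0.1% DMSO), then stimulated with 200 μg/mL F(ab)2-complexed anti-CD3 (UCHT1) for 15 min at 37 °C. Lysate phospho-SLP-76 detected by HTRF after overnight antibody incubation; IC50 from four-parameter fit.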
In general terms: Time-resolved FRET reads energy transfer from a long-lived donor to a nearby acceptor.

Assay [2] deals with human full-length recombinant HPK1 (Homo sapiens (Human), UniProt Q92918). In words: HPK1 biochemical enzyme assay, microfluidic mobility shift assay (MSA). As to conditions: read-out: HPK1 Enzyme Assay_Ki.
human full-length recombinant HPK1, sequence (Q92918 whole entry): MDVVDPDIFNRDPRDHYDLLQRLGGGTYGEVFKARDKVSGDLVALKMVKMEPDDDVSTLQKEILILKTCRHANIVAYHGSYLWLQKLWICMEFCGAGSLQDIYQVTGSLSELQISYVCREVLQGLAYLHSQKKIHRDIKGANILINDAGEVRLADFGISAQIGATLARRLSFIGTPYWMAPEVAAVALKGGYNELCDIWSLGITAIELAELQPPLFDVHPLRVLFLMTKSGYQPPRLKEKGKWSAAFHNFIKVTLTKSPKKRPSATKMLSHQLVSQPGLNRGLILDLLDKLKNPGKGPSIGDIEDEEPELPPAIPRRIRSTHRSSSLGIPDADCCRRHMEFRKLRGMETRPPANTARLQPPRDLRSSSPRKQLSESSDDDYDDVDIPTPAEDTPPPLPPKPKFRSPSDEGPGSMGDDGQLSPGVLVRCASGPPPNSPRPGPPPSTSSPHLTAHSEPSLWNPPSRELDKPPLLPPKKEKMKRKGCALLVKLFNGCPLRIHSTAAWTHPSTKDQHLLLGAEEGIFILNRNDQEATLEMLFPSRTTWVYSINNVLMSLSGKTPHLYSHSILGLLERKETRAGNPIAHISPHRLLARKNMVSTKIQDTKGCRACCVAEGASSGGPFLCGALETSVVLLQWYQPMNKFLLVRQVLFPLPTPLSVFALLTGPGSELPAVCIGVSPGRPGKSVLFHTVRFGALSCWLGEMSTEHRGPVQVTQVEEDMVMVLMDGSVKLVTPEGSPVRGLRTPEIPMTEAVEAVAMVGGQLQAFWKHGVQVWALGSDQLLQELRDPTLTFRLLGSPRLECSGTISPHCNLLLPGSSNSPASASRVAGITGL
Where [3] appears, read: 30 min pre-treatment, anti-CD3 stimulation 15 min, HTRF.
The mark [4] stands for this setting: mobility shift assay, 75 μM ATP, Morrison equation, tight-binding competitive inhibition.
Where [5] appears, read: Phospho-SLP-76 (Ser376) HTRF, anti-CD3 stimulation.

As for `CNCc1nc(C2CC2)cc2c1CN(c1cccc(N3C(=O)OC[C@@H]3C)n1)C2=O` [Example 40, 6-cyclopropyl-4-[(methylamino)methyl]-2-{6-[(4S)-4-methyl-2-oxo-1,3-oxazolidin-3-yl]pyridin-2-yl}-2,3-dihydro-1H-pyrrolo[3,4-c]pyridin-1-one], in assay [1] (setting [3]), the IC50 worked out at 137 nM. Moreover, the Ki in assay [2] (setting [4]) came to 0.81 nM.

As for `CCC(CC)n1cnnc1-c1cccc(N2Cc3c(cc(N4CCC[C@H]4C)nc3CNC)C2=O)n1` [Example 144, 4-[(methylamino)methyl]-6-[(2R)-2-methylpyrrolidin-1-yl]-2-{6-[4-(pentan-3-yl)-4H-1,2,4-triazol-3-yl]pyridin-2-yl}-2,3-dihydro-1H-pyrrolo[3,4-c]pyridin-1-one], the IC50 in assay [1] (setting [5]) came out at 15 nM. Moreover, the Ki in assay [2] (HPK1 mobility shift assay) is less than 0.05 nM.

Consider `CC(C)n1cnnc1-c1cccc(N2Cc3c(cc(N4CCC[C@H]4C)nc3CN)C2=O)n1` [Example 107, 4-(aminomethyl)-6-[(2R)-2-methylpyrrolidin-1-yl]-2-{6-[4-(propan-2-yl)-4H-1,2,4-triazol-3-yl]pyridin-2-yl}-2,3-dihydro-1H-pyrrolo[3,4-c]pyridin-1-one], for which, in assay [1] (setting [5]), the IC50 amounted to 22 nM. Moreover, the Ki in assay [2] (HPK1 mobility shift assay) turned out to be 0.04 nM.

As to `C[C@H]1COC(=O)N1c1cccc(N2Cc3c(cc(N(C)C)nc3CN)C2=O)n1` [Example 32, 4-(aminomethyl)-6-(dimethylamino)-2-{6-[(4S)-4-methyl-2-oxo-1,3-oxazolidin-3-yl]pyridin-2-yl}-2,3-dihydro-1H-pyrrolo[3,4-c]pyridin-1-one], the IC50 in assay [1] (setting [3]) was 210 nM. For the same molecule, the Ki in assay [2] (setting [4]) is 0.34 nM.

As to `CCCn1cnnc1-c1cccc(N2Cc3c(cc(N(C)CC)nc3CN)C2=O)n1` [Example 56, 4-(aminomethyl)-6-[ethyl(methyl)amino]-2-[6-(4-propyl-4H-1,2,4-triazol-3-yl)pyridin-2-yl]-2,3-dihydro-1H-pyrrolo[3,4-c]pyridin-1-one hydrochloride], in assay [1] (setting [3]), the IC50 is 139 nM. In addition, the Ki in assay [2] (setting [4]) came out at 0.34 nM.

`CCN(C)c1cc2c(c(CNC)n1)CN(c1cccc(-c3nncn3CC)n1)C2=O` [Example 131, 6-[ethyl(methyl)amino]-2-[6-(4-ethyl-4H-1,2,4-triazol-3-yl)pyridin-2-yl]-4-[(methylamino)methyl]-2,3-dihydro-1H-pyrrolo[3,4-c]pyridin-1-one]: the IC50 in assay [1] (setting [5]) worked out at 57 nM. Besides, in assay [2] (HPK1 mobility shift assay), the Ki worked out at 0.11 nM.

As for `CCCn1c(C)nnc1-c1cccc(N2Cc3c(cc(N(C)CC)nc3CN)C2=O)n1` [Example 161], the IC50 in assay [1] (setting [5]) amounted to 217 nM. Further, the Ki in assay [2] (HPK1 mobility shift assay) was 0.68 nM.

In the case of `CCCn1c(C)nnc1-c1cccc(N2Cc3c(cc(N(C)CC)nc3CNC)C2=O)n1` [Example 130, 6-[ethyl(methyl)amino]-4-[(methylamino)methyl]-2-[6-(5-methyl-4-propyl-4H-1,2,4-triazol-3-yl)pyridin-2-yl]-2,3-dihydro-1H-pyrrolo[3,4-c]pyridin-1-one], the IC50 in assay [1] (setting [5]) stood at 201 nM. In addition, the Ki in assay [2] (HPK1 mobility shift assay) was determined as 0.78 nM.

As for `CCn1cnnc1-c1cccc(N2Cc3c(cc(N4CCC[C@H]4C)nc3CNC)C2=O)n1` [Example 115, 2-[6-(4-ethyl-4H-1,2,4-triazol-3-yl)pyridin-2-yl]-4-[(methylamino)methyl]-6-[(2R)-2-methylpyrrolidin-1-yl]-2,3-dihydro-1H-pyrrolo[3,4-c]pyridin-1-one], in assay [1] (setting [5]), the IC50 was found to be 21 nM. The Ki in assay [2] (HPK1 mobility shift assay) was less than 0.09 nM.

As for `CCN(C)c1cc2c(c(CN)n1)CN(c1cccc(-c3nnc(C)n3CC)n1)C2=O` [Example 171], in assay [1] (setting [5]), the IC50 worked out at 180 nM. The Ki in assay [2] (HPK1 mobility shift assay) is 0.34 nM.

With `CC[C@H](C)n1cnnc1-c1cccc(N2Cc3c(cc(N(C)C)nc3CNC)C2=O)n1` [Example 14, 2-(6-{4-[(2S)-butan-2-yl]-4H-1,2,4-triazol-3-yl}pyridin-2-yl)-6-(dimethylamino)-4-[(methylamino)methyl]-2,3-dihydro-1H-pyrrolo[3,4-c]pyridin-1-one], the IC50 in assay [1] (setting [3]) was 102 nM. In assay [2] (setting [4]), the Ki was found to be 0.17 nM.

Turning to `CCC(CC)n1cnnc1-c1cccc(N2Cc3c(cc(N4CCC[C@H]4C)nc3CN)C2=O)n1` [Example 143, 4-(aminomethyl)-6-[(2R)-2-methylpyrrolidin-1-yl]-2-{6-[4-(pentan-3-yl)-4H-1,2,4-triazol-3-yl]pyridin-2-yl}-2,3-dihydro-1H-pyrrolo[3,4-c]pyridin-1-one], the IC50 in assay [1] (setting [5]) was found to be 28 nM. In addition, the Ki in assay [2] (HPK1 mobility shift assay) came out at 0.09 nM.

As to `CNCc1nc(N2CCC2)cc2c1CN(c1cccc(N3C(=O)OC[C@@H]3C)n1)C2=O` [Example 33, 6-(azetidin-1-yl)-4-[(methylamino)methyl]-2-{6-[(4S)-4-methyl-2-oxo-1,3-oxazolidin-3-yl]pyridin-2-yl}-2,3-dihydro-1H-pyrrolo[3,4-c]pyridin-1-one], the IC50 in assay [1] (setting [3]) turned out to be 134 nM. For the same molecule, the Ki in assay [2] (setting [4]) was determined as 0.28 nM.

Turning to `Cc1nnc(-c2cccc(N3Cc4c(cc(N5CCC[C@@H]5C)nc4CN)C3=O)n2)n1C(C)C` [Example 162], the IC50 in assay [1] (setting [5]) was 136 nM. The Ki in assay [2] (HPK1 mobility shift assay) is 0.76 nM.

Take `CNCc1nc(N(C)C)cc2c1CN(c1cccc(N3C(=O)OC[C@@H]3C(F)F)n1)C2=O` [Example 37, 2-{6-[(4R)-4-(difluoromethyl)-2-oxo-1,3-oxazolidin-3-yl]pyridin-2-yl}-6-(dimethylamino)-4-[(methylamino)methyl]-2,3-dihydro-1H-pyrrolo[3,4-c]pyridin-1-one]: the IC50 in assay [1] (setting [3]) was 487 nM. In addition, the Ki in assay [2] (setting [4]) was 1.5 nM.

`C[C@H]1COC(=O)N1c1cccc(N2Cc3c(cc(C4(C)CC4)nc3CN)C2=O)n1` [Example 42, 4-(aminomethyl)-6-(1-methylcyclopropyl)-2-{6-[(4S)-4-methyl-2-oxo-1,3-oxazolidin-3-yl]pyridin-2-yl}-2,3-dihydro-1H-pyrrolo[3,4-c]pyridin-1-one]: in assay [1] (setting [3]), the IC50 was determined as 192 nM. In assay [2] (setting [4]), the Ki was 0.33 nM.

`CC[C@H](C)n1cnnc1-c1cccc(N2Cc3c(cc(C4(C)CC4)nc3CNC)C2=O)n1` [Example 58, 2-(6-{4-[(2S)-butan-2-yl]-4H-1,2,4-triazol-3-yl}pyridin-2-yl)-4-[(methylamino)methyl]-6-(1-methylcyclopropyl)-2,3-dihydro-1H-pyrrolo[3,4-c]pyridin-1-one]: in assay [1] (setting [3]), the IC50 worked out at 103 nM. For the same molecule, in assay [2] (setting [4]), the Ki worked out at 0.16 nM.

On to `CNCc1nc(C2(C)CC2)cc2c1CN(c1ccc(F)c(-c3nncn3C(C)C)n1)C2=O` [Example 83, 2-{5-fluoro-6-[4-(propan-2-yl)-4H-1,2,4-triazol-3-yl]pyridin-2-yl}-4-[(methylamino)methyl]-6-(1-methylcyclopropyl)-2,3-dihydro-1H-pyrrolo[3,4-c]pyridin-1-one], for which the IC50 in assay [1] (setting [5]) stood at 6640 nM. Also, the Ki in assay [2] (HPK1 mobility shift assay) amounted to 35.2 nM.

As for `CCn1cnnc1-c1cccc(N2Cc3c(cc(N4[C@H](C)CC[C@H]4C)nc3CNC)C2=O)n1` [Example 106, 6-[(2R,5R)-2,5-dimethylpyrrolidin-1-yl]-2-[6-(4-ethyl-4H-1,2,4-triazol-3-yl)pyridin-2-yl]-4-[(methylamino)methyl]-2,3-dihydro-1H-pyrrolo[3,4-c]pyridin-1-one], the IC50 in assay [1] (setting [5]) amounted to 83 nM. Moreover, in assay [2] (HPK1 mobility shift assay), the Ki was determined as 0.26 nM.

Turning to `CCC(CC)n1cnnc1-c1cccc(N2Cc3c(cc(N(C)CC)nc3CN)C2=O)n1` [Example 153], in assay [1] (setting [5]), the IC50 was found to be 65 nM. The Ki in assay [2] (HPK1 mobility shift assay) amounted to 0.14 nM.

Take `CCN(CC)c1cc2c(c(CN)n1)CN(c1cccc(-c3nncn3C(C)C)n1)C2=O` [Example 38, 4-(aminomethyl)-6-(diethylamino)-2-{6-[4-(propan-2-yl)-4H-1,2,4-triazol-3-yl]pyridin-2-yl}-2,3-dihydro-1H-pyrrolo[3,4-c]pyridin-1-one]: in assay [1] (setting [3]), the IC50 was found to be 147 nM. Also, the Ki in assay [2] (setting [4]) was determined as 0.38 nM.

With `CCC(CC)n1cnnc1-c1cccc(N2Cc3c(cc(N4CCCC4(C)C)nc3CN)C2=O)n1` [Example 151], the IC50 in assay [1] (setting [5]) came out at 14 nM. Further, in assay [2] (HPK1 mobility shift assay), the Ki came out at 0.1 nM.

Turning to `CCCn1cnnc1-c1cccc(N2Cc3c(cc(N4CCC[C@H]4C(F)(F)F)nc3CNC)C2=O)n1` [Example 113, 4-[(methylamino)methyl]-2-[6-(4-propyl-4H-1,2,4-triazol-3-yl)pyridin-2-yl]-6-[(2S)-2-(trifluoromethyl)pyrrolidin-1-yl]-2,3-dihydro-1H-pyrrolo[3,4-c]pyridin-1-one], the IC50 in assay [1] (setting [5]) was 83 nM. Also, the Ki in assay [2] (HPK1 mobility shift assay) amounted to 0.22 nM.

`CCN(c1cc2c(c(CNC)n1)CN(c1cccc(-c3nncn3CC)n1)C2=O)C(C)C` [Example 84, 6-[ethyl(propan-2-yl)amino]-2-[6-(4-ethyl-4H-1,2,4-triazol-3-yl)pyridin-2-yl]-4-[(methylamino)methyl]-2,3-dihydro-1H-pyrrolo[3,4-c]pyridin-1-one]: in assay [1] (setting [5]), the IC50 stood at 138 nM. For the same molecule, the Ki in assay [2] (HPK1 mobility shift assay) is 0.14 nM.

`CNCc1nc(N2CCC[C@H]2C)cc2c1CN(c1cccc(-c3nncn3C(C)C)n1)C2=O` [Example 104, 4-[(methylamino)methyl]-6-[(2R)-2-methylpyrrolidin-1-yl]-2-{6-[4-(propan-2-yl)-4H-1,2,4-triazol-3-yl]pyridin-2-yl}-2,3-dihydro-1H-pyrrolo[3,4-c]pyridin-1-one]: the IC50 in assay [1] (setting [5]) came to 51 nM. Also, the Ki in assay [2] (HPK1 mobility shift assay) amounted to 0.13 nM.

On to `Cc1nnc(-c2cccc(N3Cc4c(cc(N(C)C(C)C)nc4CN)C3=O)n2)n1C(C)C` [Example 165], for which the IC50 in assay [1] (setting [5]) was determined as 114 nM. For the same molecule, in assay [2] (HPK1 mobility shift assay), the Ki amounted to 0.28 nM.

On to `CCc1nnc(-c2cccc(N3Cc4c(cc(N5CCC[C@H]5C)nc4CN)C3=O)n2)n1CC` [Example 185], for which the IC50 in assay [1] (setting [5]) stood at 136 nM. For the same molecule, in assay [2] (HPK1 mobility shift assay), the Ki stood at 0.79 nM.

As to `CCn1cnnc1-c1cccc(N2Cc3c(cc(N(C)C)nc3CNC)C2=O)n1` [Example 20, 6-(dimethylamino)-2-[6-(4-ethyl-4H-1,2,4-triazol-3-yl)pyridin-2-yl]-4-[(methylamino)methyl]-2,3-dihydro-1H-pyrrolo[3,4-c]pyridin-1-one], the IC50 in assay [1] (setting [3]) turned out to be 158 nM. Moreover, the Ki in assay [2] (setting [4]) was found to be 2.8 nM.
